One assay deals with T1, Human KLKB1 protein (Homo sapiens, UniProt P03952).
T1 construct: purchased Enzyme Research Labs
Kind of assay: KLKB1 kallikrein protease inhibition assay (chromogenic substrate S-2302). Format: biochemical. The settings on record: 3 nM KLKB1, 250 μM S-2302, 10 min pre-incubation, RT, read at 405 nm. The procedure:
The KLKB1 kallikrein activity reported herein (e.g., Table A) was obtained as follows. Human KLKB1 protein was obtained from Enzyme Research Labs. The chromogenic substrate S-2302 was obtained from DiaPharma. KLKB1 was assayed in buffer containing 0.05 M Tris (pH 7.4), 0.01 M NaCl and 0.2% w/v PEG-8000. The final concentration of enzyme used was 3 nM KLKB1. The final concentration of substrate used was 250 μM S-2302 for KLKB1. All assays were performed in 96-well microtiter plates at room temperature (RT). […] The plate was read at 10 minutes after substrate addition. The IC50 was calculated by plotting the percent (%) inhibition against compound concentration and fitting the data to a constrained four parameter sigmoidal curve, as known in the art.

A further assay deals with T2, Human thrombin (Homo sapiens, UniProt P00734).
T2 construct: Thrombin (fIIa, the active form of prothrombin) is another serine protease; purchased Haematologic Technologies Inc
As to the kind of experiment: thrombin protease inhibition assay (chromogenic substrate S-2238). The settings on record: 3 nM thrombin, 125 μM S-2238, 10 min pre-incubation, RT, read at 405 nm. Format: biochemical. How it is done: The thrombin activity reported herein (e.g., Table A) was obtained as follows. […] Thrombin was assayed in buffer containing 0.05 M Tris (pH 7.4), 0.015 M NaCl and 0.01% PEG-8000. The final concentration of enzyme used was 3 nM thrombin. […] All assays were performed in 96-well microtiter plates at room temperature (RT). […] Inhibitor IC50 values were determined by adding test compound as ten point, three-fold serial dilutions in buffer solution, as known in the art. The plate was read at 10 minutes after substrate addition. The IC50 was calculated by plotting the percent (%) inhibition against compound concentration and fitting the data to a constrained four parameter sigmoidal curve, as known in the art.

T1 sequence (P03952 391-638 limits assumed): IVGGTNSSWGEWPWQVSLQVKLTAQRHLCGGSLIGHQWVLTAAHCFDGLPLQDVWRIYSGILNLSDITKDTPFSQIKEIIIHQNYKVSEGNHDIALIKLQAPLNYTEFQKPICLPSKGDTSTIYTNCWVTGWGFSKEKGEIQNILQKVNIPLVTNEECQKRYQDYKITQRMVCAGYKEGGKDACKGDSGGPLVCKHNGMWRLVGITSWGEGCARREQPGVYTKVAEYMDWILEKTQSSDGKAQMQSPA
T1 sequence (P03952 20-390 partner limits assumed): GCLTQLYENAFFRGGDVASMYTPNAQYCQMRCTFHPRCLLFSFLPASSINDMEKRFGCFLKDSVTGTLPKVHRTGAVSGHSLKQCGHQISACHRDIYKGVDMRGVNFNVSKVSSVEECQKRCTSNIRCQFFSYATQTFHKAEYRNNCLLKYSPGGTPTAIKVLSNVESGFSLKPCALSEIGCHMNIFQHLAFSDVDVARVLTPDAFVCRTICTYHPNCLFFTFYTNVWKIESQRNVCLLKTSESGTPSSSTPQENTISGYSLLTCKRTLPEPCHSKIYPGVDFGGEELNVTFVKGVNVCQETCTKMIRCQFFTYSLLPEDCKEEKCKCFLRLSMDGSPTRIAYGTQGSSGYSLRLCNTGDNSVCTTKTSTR

By IC50 is commonly meant the concentration at which inhibition is half-maximal. The low end stands for higher potency, the high end for lower potency. On to `C=Cc1ccc(-c2cc(NCc3ccc(Cl)s3)n(C(=O)C(C)(C)C)n2)[nH]c1=O` [Entry 46, 6-(5-[(5-chlorothiophen-2-yl)methyl]amino-1-(2,2-dimethylpropanoyl)-1H-pyrazol-3-yl)-3-ethenyl-1,2-dihydropyridin-2-one], for which the values for the 50% inhibitory concentration (IC50) against Human KLKB1 protein and at Human thrombin were 10000 to 100000 nM and < 100 nM, respectively.
For `O=C(Cn1ccc(-c2cc(NCc3ccc(Cl)s3)n(C(=O)c3ccsc3)n2)cc1=O)N1CCOCC1` [Entry 26, 4-(5-[(5-chlorothiophen-2-yl)methyl]amino-1-(thiophene-3-carbonyl)-1H-pyrazol-3-yl)-1-[2-(morpholin-4-yl)-2-oxoethyl]-1,2-dihydropyridin-2-one] the same measures were 1000 to 10000 nM and 100 to 1000 nM.
Turning to `O=C(c1ccsc1)n1nc(-c2ccn(Cc3cccnc3)c(=O)c2)cc1NCc1ccc(Cl)s1` [Entry 25, 4-(5-[(5-chlorothiophen-2-yl)methyl]amino-1-(thiophene-3-carbonyl)-1H-pyrazol-3-yl)-1-(pyridin-3-ylmethyl)-1,2-dihydropyridin-2-one], the half-inhibitory concentration (IC50) against Human KLKB1 protein and at Human thrombin was < 100 nM each time.
Turning to `O=C(c1ccsc1)n1nc(-c2ccn(CCN3CCOCC3)c(=O)c2)cc1NCc1ccc(Cl)s1` [Entry 27, 4-(5-[(5-chlorothiophen-2-yl)methyl]amino-1-(thiophene-3-carbonyl)-1H-pyrazol-3-yl)-1-[2-(morpholin-4-yl)ethyl]-1,2-dihydropyridin-2-one], the 50% inhibitory concentration (IC50) was 100 to 1000 nM against Human KLKB1 protein and < 100 nM on Human thrombin.
The matching figures for `Cc1c[nH]c(=O)c(-c2cc(NCc3ccc(Cl)s3)n(C(=O)c3ccoc3)n2)c1` [Entry 4, 3-(5-[(5-chlorothiophen-2-yl)methyl]amino-1-(furan-3-carbonyl)-1H-pyrazol-3-yl)-5-methyl-1,2-dihydropyridin-2-one]: 100 to 1000 nM and < 100 nM.
With `O=C(c1ccsc1)n1nc(-c2cc[nH]c(=O)c2)cc1NCc1ccc(Cl)s1` [Entry 22, 4-(5-[(5-chlorothiophen-2-yl)methyl]amino-1-(thiophene-3-carbonyl)-1H-pyrazol-3-yl)-1,2-dihydropyridin-2-one], the IC50 is 100 to 1000 nM against Human KLKB1 protein and < 100 nM against Human thrombin.
For `O=c1cc(-c2cc(NCc3ccc(Cl)s3)[nH]n2)ccn1Cc1cccnc1` [Entry 30, 4-(5-[(5-chlorothiophen-2-yl)methyl]amino-1H-pyrazol-3-yl)-1-(pyridin-3-ylmethyl)-1,2-dihydropyridin-2-one] the same measures were > 100000 nM and > 100000 nM.
For `CC(C)(C)C(=O)n1nc(-c2cc(N3CCOCC3)c[nH]c2=O)cc1NCc1ccc(Cl)s1` [Entry 1, 3-(5-[(5-chlorothiophen-2-yl)methyl]amino-1-(2,2-dimethylpropanoyl)-1H-pyrazol-3-yl)-5-(morpholin-4-yl)-1,2-dihydropyridin-2-one] the same measures were 1000 to 10000 nM and < 100 nM.
For `CC(C)(C)C(=O)n1nc(-c2cc(N3CCOCC3)[nH]c(=O)c2)cc1NCc1ccc(Cl)s1` [Entry 13, 4-(5-[(5-chlorothiophen-2-yl)methyl]amino-1-(2,2-dimethylpropanoyl)-1H-pyrazol-3-yl)-6-(morpholin-4-yl)-1,2-dihydropyridin-2-one] the same measures were > 100000 nM and 1000 to 10000 nM.
`O=C(c1ccsc1)n1nc(-c2cc(-c3ccccc3)[nH]c(=O)c2)cc1NCc1ccc(Cl)s1` [Entry 28, 4-(5-[(5-chlorothiophen-2-yl)methyl]amino-1-(thiophene-3-carbonyl)-1H-pyrazol-3-yl)-6-phenyl-1,2-dihydropyridin-2-one]: the IC50 against Human KLKB1 protein and against Human thrombin was > 100000 nM in each case.
As to `O=C(c1ccsc1)n1nc(-c2ccc(=O)[nH]c2)cc1NCc1ccc(Cl)s1` [Entry 37, 5-(5-[(5-chlorothiophen-2-yl)methyl]amino-1-(thiophene-3-carbonyl)-1H-pyrazol-3-yl)-1,2-dihydropyridin-2-one], the results for the IC50 at Human KLKB1 protein and on Human thrombin were 1000 to 10000 nM and 100 to 1000 nM, respectively.
The matching figures for `O=c1ccc(-c2cc(NCc3ccc(Cl)s3)[nH]n2)c[nH]1` [Entry 38, 5-(5-[(5-chlorothiophen-2-yl)methyl]amino-1H-pyrazol-3-yl)-1,2-dihydropyridin-2-one]: > 100000 nM and > 100000 nM.
For `COCCn1ccc(-c2cc(NCc3ccc(Cl)s3)n(C(=O)c3ccoc3)n2)cc1=O` [Entry 17, 4-(5-[(5-chlorothiophen-2-yl)methyl]amino-1-(furan-3-carbonyl)-1H-pyrazol-3-yl)-1-(2-methoxyethyl)-1,2-dihydropyridin-2-one] the same measures were 1000 to 10000 nM and < 100 nM.
The matching figures for `COCCn1ccc(-c2cc(NCc3ccc(Cl)s3)n(C(=O)c3ccsc3)n2)cc1=O` [Entry 23, 4-(5-[(5-chlorothiophen-2-yl)methyl]amino-1-(thiophene-3-carbonyl)-1H-pyrazol-3-yl)-1-(2-methoxyethyl)-1,2-dihydropyridin-2-one]: 100 to 1000 nM and < 100 nM.
On to `COc1ccccc1C(=O)n1nc(-c2c[nH]c(=O)c(Br)c2)cc1NCc1ccc(Cl)s1` [Entry 5, 3-bromo-5-(5-[(5-chlorothiophen-2-yl)methyl]amino-1-(2-methoxybenzoyl)-1H-pyrazol-3-yl)-1,2-dihydropyridin-2-one], for which the half-maximal inhibitory concentration (IC50) against Human KLKB1 protein was in the range of 1000 to 10000 nM; at Human thrombin, 100 to 1000 nM.
The matching figures for `O=C(c1ccoc1)n1nc(-c2ccn(CCN3CCOCC3)c(=O)c2)cc1NCc1ccc(Cl)s1` [Entry 21, 4-(5-[(5-chlorothiophen-2-yl)methyl]amino-1-(furan-3-carbonyl)-1H-pyrazol-3-yl)-1-[2-(morpholin-4-yl)ethyl]-1,2-dihydropyridin-2-one]: 100 to 1000 nM and < 100 nM.
The matching figures for `O=C(c1ccoc1)n1nc(-c2ccc(Br)c(=O)[nH]2)cc1NCc1ccc(Cl)s1` [Entry 7, 3-bromo-6-(5-[(5-chlorothiophen-2-yl)methyl]amino-1-(furan-3-carbonyl)-1H-pyrazol-3-yl)-1,2-dihydropyridin-2-one]: 10000 to 100000 nM and 100 to 1000 nM.
For `O=c1[nH]cc(Br)cc1-c1cc(NCc2ccc(Cl)s2)[nH]n1` [Entry 42, 5-bromo-3-(5-[(5-chlorothiophen-2-yl)methyl]amino-1H-pyrazol-3-yl)-1,2-dihydropyridin-2-one] the same measures were 10000 to 100000 nM and > 100000 nM.
On to `CC(C)(C)C(=O)n1nc(-c2cc(-c3ccccc3)c[nH]c2=O)cc1NCc1ccc(Cl)s1` [Entry 2, 3-(5-[(5-chlorothiophen-2-yl)methyl]amino-1-(2,2-dimethylpropanoyl)-1H-pyrazol-3-yl)-5-phenyl-1,2-dihydropyridin-2-one], for which the values for the IC50 against Human KLKB1 protein and on Human thrombin were 10000 to 100000 nM and < 100 nM, respectively.
The matching figures for `O=C(c1ccsc1)n1nc(-c2cc(Br)c[nH]c2=O)cc1NCc1ccc(Cl)s1` [Entry 41, 5-bromo-3-(5-[(5-chlorothiophen-2-yl)methyl]amino-1-(thiophene-3-carbonyl)-1H-pyrazol-3-yl)-1,2-dihydropyridin-2-one]: 100 to 1000 nM and < 100 nM.
The matching figures for `O=c1cccc(-c2cc(NCc3ccc(Cl)s3)[nH]n2)[nH]1` [Entry 47, 6-(5-[(5-chlorothiophen-2-yl)methyl]amino-1H-pyrazol-3-yl)-1,2-dihydropyridin-2-one]: > 100000 nM and > 100000 nM.
For `CC(C)(C)C(=O)n1nc(-c2cc[nH]c(=O)c2)cc1NCc1ccc(Cl)s1` [Entry 8, 4-(5-[(5-chlorothiophen-2-yl)methyl]amino-1-(2,2-dimethylpropanoyl)-1H-pyrazol-3-yl)-1,2-dihydropyridin-2-one] the same measures were 1000 to 10000 nM and < 100 nM.
Regarding `O=c1cc(-c2cc(NCc3ccc(Cl)s3)[nH]n2)cc[nH]1` [Entry 29, 4-(5-[(5-chlorothiophen-2-yl)methyl]amino-1H-pyrazol-3-yl)-1,2-dihydropyridin-2-one], the concentration for half-maximal inhibition (IC50) against Human KLKB1 protein and against Human thrombin was > 100000 nM in each case.
For `O=C(c1ccoc1)n1nc(-c2cc[nH]c(=O)c2)cc1NCc1ccc(Cl)s1` [Entry 16, 4-(5-[(5-chlorothiophen-2-yl)methyl]amino-1-(furan-3-carbonyl)-1H-pyrazol-3-yl)-1,2-dihydropyridin-2-one], the IC50 on Human KLKB1 protein is 1000 to 10000 nM; against Human thrombin, < 100 nM.
For `O=C(c1ccsc1)n1nc(-c2ccn(Cc3ccccn3)c(=O)c2)cc1NCc1ccc(Cl)s1` [Entry 24, 4-(5-[(5-chlorothiophen-2-yl)methyl]amino-1-(thiophene-3-carbonyl)-1H-pyrazol-3-yl)-1-(pyridin-2-ylmethyl)-1,2-dihydropyridin-2-one], the IC50 on Human KLKB1 protein and on Human thrombin was < 100 nM in each case.
As for `O=c1[nH]cc(-c2cc(NCc3ccc(Cl)s3)[nH]n2)cc1Br` [Entry 6, 3-bromo-5-(5-[(5-chlorothiophen-2-yl)methyl]amino-1H-pyrazol-3-yl)-1,2-dihydropyridin-2-one], the IC50 at Human KLKB1 protein and against Human thrombin was > 100000 nM each time.

Values taken from US10189810B2, “Pyrazolyl-substituted pyridone compounds as serine protease inhibitors” (VERSEON CORPORATION, priority 2014, dated 2019).
